≈ marks a conversion by molar mass, not a printed value. Calls of active or inactive are those of the source. The rule behind the calls is not given here.
Assays:
Staphylococcus aureus [1] = experiment: Antibacterial activity against methicillin-resistant Staphylococcus aureus N315 measured by Muller-Hinton broth based microdilution assay; format: functional
Enterococcus faecalis = experiment: Antibacterial activity against Enterococcus faecalis measured by Muller-Hinton broth based microdilution assay; format: functional
Staphylococcus aureus [2] = experiment: Antibacterial activity against Staphylococcus aureus measured by Muller-Hinton broth based microdilution assay; format: functional
Staphylococcus aureus [3] = experiment: Antibacterial activity against Staphylococcus aureus ATCC 25923 measured by Muller-Hinton broth based microdilution assay; format: functional
Staphylococcus aureus [4] = experiment: Antibacterial activity against Staphylococcus aureus ATCC 29213 measured by Muller-Hinton broth based microdilution assay; format: functional
Klebsiella pneumoniae = experiment: Antibacterial activity against Klebsiella pneumoniae measured by Muller-Hinton broth based microdilution assay; format: functional
Escherichia coli [5] = experiment: Antibacterial activity against Escherichia coli measured by Muller-Hinton broth based microdilution assay; format: functional
Pseudomonas aeruginosa [6] = experiment: Antibacterial activity against Pseudomonas aeruginosa measured by Muller-Hinton broth based microdilution assay; format: functional
Acinetobacter baumannii = experiment: Antibacterial activity against Acinetobacter baumannii measured by Muller-Hinton broth based microdilution assay; format: functional
Pseudomonas aeruginosa [7] = experiment: Antibacterial activity against Pseudomonas aeruginosa ATCC 27853 measured by Muller-Hinton broth based microdilution assay; format: functional
Escherichia coli [8] = experiment: Antibacterial activity against Escherichia coli ATCC 25922 measured by Muller-Hinton broth based microdilution assay; format: functional
[9] = Hemolytic activity in human RBC measured after 1 hr; format: toxicity, cell-based, Erythrocyte; details: human red blood cells (erythrocytes)
[10] = Selectivity ratio of HC50 for hemolytic activity in human RBC to MIC for antibacterial activity against Staphylococcus aureus; format: toxicity; details: human red blood cells (erythrocytes)
[11] = Hemolytic activity in human RBC assessed as hemolytic rate at 2 to 512 ug/ml and measured after 1 hr; format: toxicity, cell-based, Erythrocyte; details: human red blood cells (erythrocytes), at 2 to 512 µg/mL, dose 2-512 µg/ml, read-out: Activity
Staphylococcus aureus [12] = experiment: Antibacterial activity against Staphylococcus aureus measured after 16 passages by resistance development assay; format: functional, organism-based
Staphylococcus aureus [13] = experiment: Inhibition of bacterial growth of Staphylococcus aureus at 1 to 2 times MIC; format: functional
Staphylococcus aureus [14] = experiment: Bactericidal activity against Staphylococcus aureus assessed as reduction in number of colonies at 0.5 to 2 times MIC measured within 6 hrs by time-kill assay; format: functional, organism-based
Staphylococcus aureus [15] = experiment: Induction of membrane depolarization in Staphylococcus aureus at 0.5 to 2 times MIC measured upto 1 hr by DiSC35 dye-based fluorescence assay; format: functional, organism-based
Staphylococcus aureus [16] = experiment: Induction of inner membrane permeabilization in Staphylococcus aureus by measuring increase in fluorescence intensity at 1 to 8 times MIC by calcein-AM/PI staining based fluorescence analysis; format: functional, organism-based
Staphylococcus aureus [17] = experiment: Disruption of membrane integrity in Staphylococcus aureus at 8 times MIC by calcein-AM/PI staining based fluorescence analysis; format: functional, organism-based
Staphylococcus aureus [18] = experiment: Disruption of membrane integrity in Staphylococcus aureus assessed as increase in nucleic acid leakage by measuring increase in absorbance 1 to 8 times MIC measured for 6 hrs by spectrophotometry; format: functional, organism-based
Staphylococcus aureus [19] = experiment: Disruption of membrane integrity in Staphylococcus aureus assessed as increase in protein leakage by measuring increase in absorbance 1 to 8 times MIC measured for 6 hrs by Bradford assay; format: functional, organism-based
Staphylococcus aureus [20] = experiment: Antibacterial activity against Staphylococcus aureus assessed as reduction in LDH activity at 1 to 8 times MIC measured after 6 hrs by microplate reader method; format: functional; parameters: scale not given: the % may be the effect or the level left
Staphylococcus aureus [21] = experiment: Induction of oxidative stress in Staphylococcus aureus assessed as increase in intracellular ROS level at 1 to 8 times MIC measured after 6 hrs by DCFH-DA staining method; format: functional, organism-based
Staphylococcus aureus [22] = experiment: Induction of oxidative stress in Staphylococcus aureus assessed as decrease in GSH activity at 1 to 8 times MIC measured after 6 hrs by Ellman's assay; format: functional, organism-based
Staphylococcus aureus [23] = experiment: Antibacterial activity against Staphylococcus aureus assessed as reduction in metabolic activity at 1 to 8 times MIC measured after 6 hrs by Alamar blue assay; format: functional, organism-based
Staphylococcus aureus [24] = experiment: Inhibition of biofilm formation in Staphylococcus aureus at 1 to 8 times MIC measured after 24 hrs by crystal violet staining method; format: functional, organism-based
Staphylococcus aureus [25] = experiment: Antibiofilm activity in Staphylococcus aureus at 1 to 8 times MIC measured by Alamar blue assay; format: functional, organism-based
L929 = experiment: Cytotoxicity against mouse L929 cells assessed as effect on cell growth at 0.25 to 0.5 ug/ml incubated for 24 hrs by MTT assay; format: toxicity, cell-based; details: l929, 24 h, dose 0.25-0.5 µg/ml

| Compound | MIC (Staphylococcus aureus [1]) [µg/mL] | MIC (Enterococcus faecalis) [µg/mL] | MIC (Staphylococcus aureus [2]) [µg/mL] | MIC (Staphylococcus aureus [3]) [µg/mL] | MIC (Staphylococcus aureus [4]) [µg/mL] | MIC (Klebsiella pneumoniae) [µg/mL] | MIC (Escherichia coli [5]) [µg/mL] | MIC (Pseudomonas aeruginosa [6]) [µg/mL] | MIC (Acinetobacter baumannii) [µg/mL] | MIC (Pseudomonas aeruginosa [7]) [µg/mL] | MIC (Escherichia coli [8]) [µg/mL] | also measured |
| --- | --- | --- | --- | --- | --- | --- | --- | --- | --- | --- | --- | --- |
| O=C1c2cccc3c(N/N=C/c4cccc(Cl)c4)ccc(c23)C(=O)N1C(CO)CO | 64 (≈ 151 µM) | 64 (≈ 151 µM) | 0.25 (≈ 0.59 µM) | 32 (≈ 75.5 µM) | 8 (≈ 18.9 µM) | 8 (≈ 18.9 µM) | 64 (≈ 151 µM) | 64 (≈ 151 µM) | 64 (≈ 151 µM) | 2 (≈ 4.72 µM) | 32 (≈ 75.5 µM) | HC50 at 1 h [9]: > 1000 µg/mL; selectivity ratio [10]: > 4000; hemolysis at 1 h [11]: < 5%; Activity (Staphylococcus aureus [12]): Active; inhibition (Staphylococcus aureus [13]): Active; Activity (Staphylococcus aureus [14]): Active; Activity (Staphylococcus aureus [15]): Active; Activity (Staphylococcus aureus [16]): Active; Activity (Staphylococcus aureus [17]): Active; Activity (Staphylococcus aureus [18]): Active; Activity (Staphylococcus aureus [19]): Active; Activity (Staphylococcus aureus [20]): 70%; Activity (Staphylococcus aureus [21]): Active; Activity (Staphylococcus aureus [22]): Active; Activity (Staphylococcus aureus [23]): Active; inhibition (Staphylococcus aureus [24]): Active; Activity (Staphylococcus aureus [25]): Active; Activity (L929): Non-Toxic |
| CCOC(=O)Cn1cc(/C=N/Nc2ccc3c4c(cccc24)C(=O)N(C(CO)CO)C3=O)c2ccccc21 | 16 (≈ 31.1 µM) | 64 (≈ 124 µM) | 0.25 (≈ 0.486 µM) | 32 (≈ 62.2 µM) | 8 (≈ 15.5 µM) | 4 (≈ 7.77 µM) | 64 (≈ 124 µM) | 64 (≈ 124 µM) | 32 (≈ 62.2 µM) | 8 (≈ 15.5 µM) | 32 (≈ 62.2 µM) | HC50 at 1 h [9]: > 1000 µg/mL; selectivity ratio [10]: > 4000; hemolysis at 1 h [11]: < 5%; Activity (Staphylococcus aureus [12]): Active; inhibition (Staphylococcus aureus [13]): Active; Activity (Staphylococcus aureus [14]): Active; Activity (Staphylococcus aureus [15]): Active; Activity (Staphylococcus aureus [16]): Active; Activity (Staphylococcus aureus [17]): Active; Activity (Staphylococcus aureus [18]): Active; Activity (Staphylococcus aureus [19]): Active; Activity (Staphylococcus aureus [20]): 70%; Activity (Staphylococcus aureus [21]): Active; Activity (Staphylococcus aureus [22]): Active; Activity (Staphylococcus aureus [23]): Active; inhibition (Staphylococcus aureus [24]): Active; Activity (Staphylococcus aureus [25]): Active; Activity (L929): Non-Toxic |
| CCCCCCCCCCn1cc(/C=N/Nc2ccc3c4c(cccc24)C(=O)N(C(CO)CO)C3=O)c2ccccc21 | 64 (≈ 113 µM) | 64 (≈ 113 µM) | 16 (≈ 28.1 µM) | 16 (≈ 28.1 µM) | 32 (≈ 56.3 µM) | 16 (≈ 28.1 µM) | 32 (≈ 56.3 µM) | 128 (≈ 225 µM) | 64 (≈ 113 µM) | 32 (≈ 56.3 µM) | 32 (≈ 56.3 µM) | – |
| O=C1c2cccc3c(N/N=C/c4ccccc4O)ccc(c23)C(=O)N1C(CO)CO | 2 (≈ 4.93 µM) | 16 (≈ 39.5 µM) | 16 (≈ 39.5 µM) | 32 (≈ 78.9 µM) | 16 (≈ 39.5 µM) | 4 (≈ 9.87 µM) | 32 (≈ 78.9 µM) | 64 (≈ 158 µM) | 64 (≈ 158 µM) | 64 (≈ 158 µM) | 32 (≈ 78.9 µM) | – |
| O=C1c2cccc3c(N/N=C/c4csc5ccccc45)ccc(c23)C(=O)N1C(CO)CO | 64 (≈ 144 µM) | 64 (≈ 144 µM) | 64 (≈ 144 µM) | 64 (≈ 144 µM) | 128 (≈ 287 µM) | 32 (≈ 71.8 µM) | 32 (≈ 71.8 µM) | 64 (≈ 144 µM) | 64 (≈ 144 µM) | 64 (≈ 144 µM) | 64 (≈ 144 µM) | – |
| CCCCCCCCn1cc(/C=N/Nc2ccc3c4c(cccc24)C(=O)N(C(CO)CO)C3=O)c2ccccc21 | 64 (≈ 118 µM) | 64 (≈ 118 µM) | 32 (≈ 59.2 µM) | 16 (≈ 29.6 µM) | 64 (≈ 118 µM) | 16 (≈ 29.6 µM) | 32 (≈ 59.2 µM) | 128 (≈ 237 µM) | 64 (≈ 118 µM) | 64 (≈ 118 µM) | 128 (≈ 237 µM) | – |
| O=C1c2cccc3c(N/N=C/c4ccc(F)cc4)ccc(c23)C(=O)N1C(CO)CO | 64 (≈ 157 µM) | 64 (≈ 157 µM) | 64 (≈ 157 µM) | 32 (≈ 78.5 µM) | 4 (≈ 9.82 µM) | 32 (≈ 78.5 µM) | 64 (≈ 157 µM) | 8 (≈ 19.6 µM) | 32 (≈ 78.5 µM) | 32 (≈ 78.5 µM) | 64 (≈ 157 µM) | – |
| COc1cc(/C=N/Nc2ccc3c4c(cccc24)C(=O)N(C(CO)CO)C3=O)ccc1O | 64 (≈ 147 µM) | 8 (≈ 18.4 µM) | 16 (≈ 36.7 µM) | 64 (≈ 147 µM) | 16 (≈ 36.7 µM) | 4 (≈ 9.19 µM) | 64 (≈ 147 µM) | 64 (≈ 147 µM) | 64 (≈ 147 µM) | 8 (≈ 18.4 µM) | 16 (≈ 36.7 µM) | – |
